Measured values published in patent US20240226063A1, “SOLUBLE ANALOGUES OF 6BIO THEREOF AND IMPLEMENTATION THEREOF” (JAWAHARLAL NEHRU CENTRE FOR ADVANCED SCIENTIFIC RESEARCH, priority 2021, published 2024).
Entries after “also recorded” stand apart in the source; their conditions may differ.

Tests used:
[1] = test system: Syngap1^+/− mice; assay: EGABA, Cl^− reversal potential; format: in vivo; details: 5 mg/kg intraperitoneal, Group I (P10-16), recorded P16
[2] = test system: Syngap1^+/− mice; assay: Fluoroethyl-based seizure threshold; format: in vivo; details: intraperitoneal, Group III (P30-80), recorded P80
Description: For investigating the effect of 6-BIO on the wild type and Syngap1^+/− mice in group III (P30-P80), mice were injected intraperitoneally with 6-BIO. The subsequent fluoroethyl-based seizure threshold i.e., susceptibility of mice to epileptic seizures was evaluated and plotted as grouped data showing individual points for the involuntary and rhythmic muscular contractions and relaxations referred to as clonus.

[3] = test system: Syngap1^+/− mice; assay: Long term potential; format: in vivo; details: 5 mg/kg intraperitoneal
[4] = test system: Syngap1^+/− mice; assay: Social novelty test (social interaction and social preference); format: in vivo; details: for Social Interference (social interaction, time with stranger 1 vs empty jar) / Social Preference (time with stranger 2 vs stranger 1): 5 mg/kg intraperitoneal
Description: (§1) The ability of 6-BIO on the behavioural deficits related to neurodevelopmental disorders was observed based on its theoretical ability to correct synaptic plasticity, EGABA, and behavioural dysfunction in mice with mutated Syngap1 gene. Two populations of mice tested were: wild type (WT) mice and mice with mutated Syngap1 gene referred to as Syngap1^+/− mice. […] In the control group and the Syngap1^+/− mice, the subjects were administered with 5 mg/kg of 6-BIO based on the bodyweight of the subject. […] For example, 2-9, male mice were used.
Social Novelty Test: Similar to the novel object recognition in Example 2, the social novelty test was performed for all age groups at 80 days. The social novelty test was performed based on the social interaction (SI) and social preference (SP) of the control wild type and Syngap1^+/− mice and wild type and Syngap1^+/− treated with 6-BIO. The social interaction was observed based on the time spent by the mice in isolation in comparison to time spent with one other mouse (stranger 1) and the social preference was observed based on the time spent with two different mice (stranger 1 and stranger 2)

[5] = test system: MPTP mice; assay: MPTP mouse model of Parkinsonism (rotarod and open field test); format: in vivo; details: 5 mg/kg intraperitoneal, administered along with MPTP
Description: The effect of 6-BIO on neurodegenerative disorders such as Parkinson's was evaluated based on testing the ability of 6-BIO on toxic protein aggregates such as the SNCA/a-synuclein protein in mice (FIG. 9) and the modulation of the autophagy flux (FIG. 10). MPTP is a widely accepted mouse model to study Parkinsonism. […] For the study, mice were intraperitoneally injected with 6-BIO at a concentration of 5 mg/kg based on the body weight of the mice.
FIG. 9 and FIG. 10 illustrated the results observed on the effect of 6-BIO and its derivatives on neurodegenerative disorders. FIG. 9 depicts the effect of administration of 5 mg/kg of 6-BIO on (A) the latency to fall of various cohorts namely placebo mice, MPTP mice (Parkinsonian mice) and the MPTP mice administered with 6-BIO (MPTP+Co) was assessed by rotarod test (B) Representative trajectory maps of all mentioned cohorts as analysed by open field test. (C) Periphery distance travelled by all indicated cohorts as assessed by open field test. […]

[6] = test system: Syngap1^+/− mice; assay: Open field test (hyperactivity/motor function and anxiety); format: in vivo; details: 5 mg/kg intraperitoneal
Description: as §1
Syngap1^+/− mice in groups I, II and III. […]

[7] = test system: autophagy flux; assay: Autophagy flux (levels of autophagosomes and autolysosomes); format: cell-based; details: cells, compared to growth media control
Source text: The derivatives of 6-BIO such as the compound 6-methoxyindirubin oxime (6-MIO), compound 50 and compound 51 were synthesized to improve their water solubility. The effect of 6-BIO and the aforementioned derivatives of 6-BIO on autophagy flux in the form of autophagosomes and autolysosomes are depicted in FIG. 10. […] Thus, the derivatives have a better potency to restore neuronal function to wild type level in neurodevelopmental disorders and play a neuroprotective role in neurodegeneration.

[8] = test system: Syngap1^+/− mice; assay: Novel object recognition test (memory); format: in vivo; details: for Novel Object Recognition (memory, discrimination index): 5 mg/kg intraperitoneal
Description: as §1
The wild type and Syngap1^+/− mice in the absence of any treatment were compared with the mice intra-peritoneally injected with 6-BIO and their behaviour was recorded with regards to recognition of a familiar object versus reaction to a novel object.

[9] = Group II (P10-80), recorded P42/P80
[10] = Group III (P30-80), recorded P80

O=C1Nc2cc(Br)ccc2/C1=C1/Nc2ccccc2/C1=N\O [6-BIO, (2′Z, 3′E)-6-Bromoindirubin-3′-oxime]
EGABA, Cl^− reversal potential [1]: Corrected | Seizure threshold (fluoroethyl-based, tonic-clonic) [2]: corrected the seizure threshold | Long term potential [3, 9]: Corrected | Long term potential [3, 10]: Corrected | Social Interference (social interaction, time with stranger 1 vs empty jar) ([4]; Group I (P10-16), recorded P80): Corrected | Social Preference (time with stranger 2 vs stranger 1) ([4]; Group I (P10-16), recorded P80, 5 mg/kg): lack of improvement | Social Interference (social interaction, time with stranger 1 vs empty jar) [4, 9]: Corrected | Social Preference (time with stranger 2 vs stranger 1) [4, 9]: Corrected | Social Interference (social interaction, time with stranger 1 vs empty jar) [4, 10]: Corrected | Social Preference (time with stranger 2 vs stranger 1) [4, 10]: Corrected | Social interaction: time spent with stranger 1 as compared to the empty jar ([4]; all age groups, recorded at P80): comparable to wild type mice | Effect on MPTP-induced neurodegeneration (rotarod latency to fall, open field periphery distance) [5]: protects neurons from degeneration | Open field, Anxiety (number of entries in the centre) ([6]; Group I (P10-16), recorded P16): anxiety was corrected | Open field, Motor function (hyperactivity, total distance travelled) ([6]; Group I (P10-16), recorded P16): hyperactivity was corrected | Open field, Anxiety (number of entries in the centre) ([6]; Group I (P10-16), recorded P80): anxiety was corrected; also recorded: ameliorates | Open field, Motor function (hyperactivity, total distance travelled) ([6]; Group I (P10-16), recorded P80): partial correction of hyperactivity; also recorded: ameliorates hyperactivity | Open field, Anxiety (number of entries in the centre) [6, 9]: anxiety was corrected | Open field, Motor function (hyperactivity, total distance travelled) [6, 9]: partial correction was observed | Open field, Anxiety (number of entries in the centre) [6, 10]: partial correction of the anxiety | Open field, Motor function (hyperactivity, total distance travelled) [6, 10]: no rescue behaviour | Levels of autophagosomes [7]: increased | Novel Object Recognition (memory, discrimination index) ([8]; Group I (P10-16), recorded P80): Corrected | Novel Object Recognition (memory, discrimination index) [8, 9]: Corrected | Novel Object Recognition (memory, discrimination index) ([8]; Group III (P30-80), recorded P80, 5 mg/kg): corrected the memory deficits | Memory deficits (novel object recognition, discrimination index) ([8]; all three age groups, behaviour at 80 days): substantially corrected memory deficits

COc1ccc2c(c1)NC(=O)C2=C1Nc2ccccc2C1=NO [6-MIO, 6-methoxyindirubin oxime]
Levels of autolysosomes [7]: increased | Levels of autophagosomes [7]: increased

O=C1Nc2cc(Br)ccc2/C1=C1/Nc2ccccc2/C1=N\O [compound 50, (2Z,3E)-6′-bromo-3-(hydroxyimino)-[2,3′-biindolinylidene]-2′-one]
Levels of autolysosomes [7]: increased

O=C1Nc2cc(Br)ccc2/C1=C1/Nc2ccccc2/C1=N\OCCO [compound 51, (2Z,3E)-6′-bromo-3-((2-hydroxyethoxy)imino)-[2,3′-biindolinylidene]-2′-one]
Levels of autolysosomes [7]: increased | Levels of autophagosomes [7]: increased
